Experimental data from US10590143B2, “Herbicidally active (alkynyl-phenyl)-substituted cyclic dione compounds and derivatives thereof” (Syngenta Limited, priority 2013, dated 2020).

Legend:
Assay in all cases: Biological Example 2 glasshouse assay for herbicidal activity
Format in all cases: in vivo
[1] = test system: Alopecurus myosuroides (ALOMY); conditions: post-emergence, 360 h, 14 or 15 DAA, 0.2% v/v X-77, read-out: percentage phytotoxicity ALOMY
Method: (§1) Seeds of a variety of monocotyledonous and dicotyledonous test plants are sown in standard soil in pots. The plants are cultivated for one day (for pre-emergence) or for about 12 days (range=10-13 days) (for post-emergence) under controlled conditions in a glasshouse (warm climate species at 24/18° C., cool climate species at 20/16° C., both at day/night; 16 hours light; 65% humidity).
(§2) An “instant formulation”, known as the “IF50”, containing 50 g/litre (i.e. 5% w/v) of the “technical” (i.e. unformulated) active ingredient is prepared by dissolving the active ingredient in a mixture of organic solvents and emulsifier, details of which are provided in the Table below. This IF50 is then mixed with a small, variable amount of acetone to aid dissolution, before addition of a 0.2% v/v aqueous solution of the adjuvant X-77 (which is a mixture of alkyl aryl polyoxyethylene glycols and free fatty acids in isopropanol, CAS Registry number 11097-66-8), as the aqueous diluent, to form an aqueous spray solution which contains a predetermined concentration of the active ingredient (which varies depending on the application rate of the active ingredient to the plants) and 0.2% v/v of the adjuvant X-77. This aqueous spray solution is then sprayed onto the plants, after one day's cultivation (for pre-emergence) or after about 12 days' cultivation (for post-emergence).
(§3) The test plants are then grown on, in a glasshouse (greenhouse) under controlled conditions (at either 24/18° C. or 20/16° C. (day/night) as mentioned above; 16 hours light; 65% humidity) and are watered twice daily. Either 14 or 15 days after application of the herbicide (14 or 15 DAA) (for post-emergence), or 20 days after application of the herbicide (20 DAA) (for pre-emergence), the test plants are evaluated visually, and an assessed percentage phytotoxicity score is given for each herbicidal application on each plant species (where 100%=total damage to plant; 0%=no damage to plant).
(§4) Some of the typical test plants are as follows: • Cool climate crop plants: Triticum aestivum (TRZAW, winter wheat), Brassica napus (BRSNN, rape, also called oilseed rape or rapeseed), Beta vulgaris (BEAVA, sugarbeet). • Warm climate crop plants: Glycine max (GLXMA, soybean). • Cool climate (“cool season”) grassy monocotyledonous weeds: Alopecurus myosuroides (ALOMY), Avena fatua (AVEFA), Lolium perenne (LOLPE), Poa annua (POAAN), Bromus tectorum (BROTE). • Warm climate (“warm season”) grassy monocotyledonous weeds: Setaria faberi (SETFA), SORVU (Sorghum bicolor (L.) Moench ssp. Bicolor, or Sorghum vulgare Pers.), Digitaria sanguinalis (DIGSA), Echinochloa crus-galli (ECHCG), Brachiaria plantaginea (BRAPL); Zea mays (ZEAMX, corn, maize, e.g. volunteer corn).

Avena fatua (AVEFA) = conditions: post-emergence, 360 h, 14 or 15 DAA, 0.2% v/v X-77, read-out: percentage phytotoxicity AVEFA
Method: as §1, §2, §3, §4

[2] = test system: Beta vulgaris (BEAVA, sugarbeet); conditions: post-emergence, 360 h, 14 or 15 DAA, 0.2% v/v X-77, read-out: percentage phytotoxicity BEAVA
Method: as §1, §2, §3, §4

[3] = test system: Brachiaria plantaginea (BRAPL); conditions: Urochloa plantaginea, post-emergence, 360 h, 14 or 15 DAA, 0.2% v/v X-77, read-out: percentage phytotoxicity BRAPL
Method: as §1, §2, §3, §4

[4] = test system: Brassica napus (BRSNN, rape); conditions: post-emergence, 14 or 15 DAA, 0.2% v/v X-77
Method: as §1, §2, §3, §4

[5] = test system: Digitaria sanguinalis (DIGSA); conditions: post-emergence, 360 h, 14 or 15 DAA, 0.2% v/v X-77, read-out: percentage phytotoxicity DIGSA
Method: as §1, §2, §3, §4

[6] = test system: Echinochloa crus-galli (ECHCG); conditions: post-emergence, 14 or 15 DAA; for percentage phytotoxicity ECHCG: 0.2% v/v X-77
Method: as §1, §2, §3, §4

Lolium perenne (LOLPE) = conditions: post-emergence, 14 or 15 DAA
Method: as §1, §2, §3, §4

[7] = test system: SORVU (Sorghum bicolor (L.) Moench ssp. Bicolor, or Sorghum vulgare Pers.); conditions: post-emergence, 360 h, 14 or 15 DAA, 0.2% v/v X-77, read-out: percentage phytotoxicity SORVU
Method: as §1, §2, §3, §4

Setaria faberi (SETFA) = conditions: post-emergence, 360 h, 14 or 15 DAA, 0.2% v/v X-77, read-out: percentage phytotoxicity SETFA
Method: as §1, §2, §3, §4

[8] = test system: Triticum aestivum (TRZAW, winter wheat); conditions: post-emergence, 360 h, 14 or 15 DAA, 0.2% v/v X-77, read-out: percentage phytotoxicity TRZAW
Method: as §1, §2, §3, §4

[9] = test system: Zea mays (ZEAMX, corn, maize, e.g. volunteer corn); conditions: post-emergence, 14 or 15 DAA
Method: as §1, §2, §3, §4

[10] = test system: Glycine max (GLXMA, soybean); conditions: post-emergence, 360 h, 14 or 15 DAA, 0.2% v/v X-77, read-out: percentage phytotoxicity GLXMA
Method: as §1, §2, §3, §4

[11] = Brassica napus, 360 h, read-out: percentage phytotoxicity BRSNN
[12] = Brassica napus, 360 h, 250 g/ha, read-out: percentage phytotoxicity BRSNN
[13] = Echinochloa crus-galli, 360 h, 30 g/ha, 0.2% v/v X-77, read-out: percentage phytotoxicity ECHCG
[14] = Echinochloa crus-galli, 360 h, 250 g/ha, 0.2% v/v X-77, read-out: percentage phytotoxicity ECHCG
[15] = Lolium perenne, 360 h, 0.2% v/v X-77, read-out: percentage phytotoxicity LOLPE
[16] = Lolium perenne, 360 h, 250 g/ha, 0.2% v/v X-77, read-out: percentage phytotoxicity LOLPE
[17] = Zea mays, 360 h, 0.2% v/v X-77, read-out: percentage phytotoxicity ZEAMX
[18] = Zea mays, 360 h, 250 g/ha, 0.2% v/v X-77, read-out: percentage phytotoxicity ZEAMX

| Structure (SMILES) | pest or weed control at 30 g/ha [1] | pest or weed control at 250 g/ha [1] | pest or weed control at 30 g/ha (Avena fatua (AVEFA)) | pest or weed control at 250 g/ha (Avena fatua (AVEFA)) | plant injury at 250 g/ha [2] | pest or weed control at 30 g/ha [3] | pest or weed control at 250 g/ha [3] | plant injury at 30 g/ha [4, 11] | plant injury at 250 g/ha [4, 12] | pest or weed control at 30 g/ha [5] | pest or weed control at 250 g/ha [5] | pest or weed control at 30 g/ha [6, 13] | pest or weed control at 250 g/ha [6, 14] | pest or weed control at 30 g/ha (Lolium perenne (LOLPE); [15]) | pest or weed control at 250 g/ha (Lolium perenne (LOLPE); [16]) | pest or weed control at 30 g/ha [7] | pest or weed control at 250 g/ha [7] | pest or weed control at 250 g/ha (Setaria faberi (SETFA)) | plant injury at 250 g/ha [8] | pest or weed control at 250 g/ha [9, 18] | also measured |
| --- | --- | --- | --- | --- | --- | --- | --- | --- | --- | --- | --- | --- | --- | --- | --- | --- | --- | --- | --- | --- | --- |
| CC#Cc1cc(F)c(C2C(=O)C3CCC(C3)C2=O)c(OC)c1 (stereo not shown) [Compound A1, 3-(2-Fluoro-6-methoxy-4-prop-1-ynyl-phenyl)-bicyclo[3.2.1]octane-2,4-dione] | 80% | 100% | 90% | 100% | 30% | 90% | 100% | 40% | 80% | 100% | 100% | 100% | 100% | 90% | 100% | 90% | 100% | 100% | 100% | 100% | percentage phytotoxicity BRSNN ([4]; 250 g/ha): 80%; percentage phytotoxicity ECHCG ([6]; 30 g/ha): 100%; percentage phytotoxicity ECHCG ([6]; 250 g/ha): 100%; percentage phytotoxicity LOLPE (Lolium perenne (LOLPE); 250 g/ha, 0.2% v/v X-77): 100%; pest or weed control at 30 g/ha (Setaria faberi (SETFA)): 90%; plant injury at 30 g/ha [8]: 70%; pest or weed control at 30 g/ha [9, 17]: 90%; percentage phytotoxicity ZEAMX ([9]; 250 g/ha, 0.2% v/v X-77): 100% |
| CC#Cc1cc(F)c(C2C(=O)C3CCC(C)(C2=O)C3(C)C)c(OC)c1 (stereo not shown) [Compound A2] |  | 60% |  | 0% | 0% |  |  |  | 10% |  | 80% |  | 90% |  | 0% |  | 90% | 80% | 0% | 90% | plant injury at 250 g/ha [10]: 20% |
| CC#Cc1cc(F)c(C2C(=O)C3CCC(C3)C2=O)c(OC(F)F)c1 (stereo not shown) [Compound A7] | 30% | 70% | 10% | 40% | 10% | 90% | 100% | 30% | 60% | 90% | 100% | 90% | 100% | 0% | 40% | 50% | 100% | 90% | 70% | 100% | pest or weed control at 125 g/ha ([1]; 125 g/ha): 70%; pest or weed control at 125 g/ha (Avena fatua (AVEFA); 125 g/ha): 30%; plant injury at 30 g/ha ([2]; 30 g/ha): 0%; plant injury at 125 g/ha ([2]; 125 g/ha): 0%; pest or weed control at 125 g/ha ([3]; 125 g/ha): 100%; plant injury at 125 g/ha ([4]; Brassica napus, 360 h, 125 g/ha, read-out: percentage phytotoxicity BRSNN): 50%; pest or weed control at 125 g/ha ([5]; 125 g/ha): 100%; pest or weed control at 125 g/ha ([6]; Echinochloa crus-galli, 360 h, 125 g/ha, 0.2% v/v X-77, read-out: percentage phytotoxicity ECHCG): 100%; plant injury at 30 g/ha ([10]; 30 g/ha): 20%; plant injury at 125 g/ha ([10]; 125 g/ha): 20%; plant injury at 250 g/ha [10]: 20%; pest or weed control at 125 g/ha (Lolium perenne (LOLPE); Lolium perenne, 360 h, 125 g/ha, 0.2% v/v X-77, read-out: percentage phytotoxicity LOLPE): 30%; pest or weed control at 125 g/ha ([7]; 125 g/ha): 90%; pest or weed control at 30 g/ha (Setaria faberi (SETFA)): 60%; pest or weed control at 125 g/ha (Setaria faberi (SETFA); 125 g/ha): 90%; plant injury at 30 g/ha [8]: 30%; plant injury at 125 g/ha ([8]; 125 g/ha): 70%; pest or weed control at 30 g/ha [9, 17]: 80%; pest or weed control at 125 g/ha ([9]; Zea mays, 360 h, 125 g/ha, 0.2% v/v X-77, read-out: percentage phytotoxicity ZEAMX): 90% |
